Each structure is given as a SMILES string. Some results are limits rather than exact numbers.

In turn, `CCCc1nn(-c2ccc(C(F)(F)F)cn2)cc1CCCCOc1cccc(CC(=O)O)c1` gave a melting point of 96 to 97 °C.

In the case of `O=C(c1cccs1)C1C(=O)N(C(=O)NS(=O)(=O)Cl)c2ccc(Cl)cc21` (stereo not given), the melting point lay in the range of 166 to 169 °C.

For the compound `Nn1cc(Cl)c(=O)[nH]c1=O`, the melting point is 224 to 225 °C.

Compound `Oc1cc(O)cc(Oc2nnn[nH]2)c1` gave a melting point of 191 to 193 °C.

As for `NC1SC=CN1Sc1ccc(F)cc1F` (stereo not given), the melting point is 116 to 117 °C.

In turn, `Cc1ccc(-c2ccc3ccccc3c2)n1CC[C@H]1C[C@H](O)CC(=O)O1` (relative stereo) showed a melting point of 45 to 50 °C.

With `FC(F)(F)c1cc(NCc2ccsc2)cc(C(F)(F)F)c1Br`, the melting point is 78 to 79 °C.

Take `CCOC(=O)COc1cc2cc(CC)sc2c(Cl)c1Cl`: the melting point was 67 to 68 °C.

In turn, `CCN1CCc2nc(Nc3cc(-c4cc(F)cc(C5NCCc6c5sc5c6CC(C)(C)C5)c4CO)cn(C)c3=O)ccc2C1` (stereo not given) registered a melting point of 134 to 135 °C.

In turn, `O=C1CCc2c(Cl)cc(F)cc21` gave a melting point of 94 to 96 °C.

Consider `CCCCc1c(OCOC(=O)C(C)(C)C)n(-c2ccccc2)n(-c2ccccc2)c1=O`, for which the melting point fell in the range of 83 to 85 °C.

For `Cc1ccc(-c2ccc3c(c2)C=C(C(=O)Nc2ccc(C(O)c4ccccn4)cc2)CCO3)cc1` (stereo not given), the melting point fell in the range of 215 to 217 °C.

Regarding `Cc1oc(-c2ccccc2)nc1CCOc1ccc(C=O)c2sccc12`, the melting point was 154 °C.

`COC=C(C(=O)OC)N(C)c1ncnc(-c2ccccc2)n1` came in with a melting point of 98 to 101 °C.

`CCCCCCCCCCCCCCOc1ccc(C(=O)OC)o1` had a melting point of 56 to 58 °C.

On to `O=C1CCc2cc(Br)c3c(c21)CCO3`, for which the melting point lay in the range of 149 to 150 °C.

Turning to `Clc1ccc(C(Cl)Cl)cn1`, the melting point is 60 °C.

Take `CON=C(C)c1ccc(NS(C)(=O)=O)c(Sc2ccc(F)cc2F)c1`: the melting point is 110 to 111 °C.

`COC(=O)c1ccc(Cl)cc1NC(=O)CSc1ccccc1C(=O)O` registered a melting point of 207 to 209 °C.

As to `OCC1OC(OCc2ccccc2)C(OCc2ccccc2)C1O` (stereo not given), the melting point lay within 73 to 74 °C.

As to `COC(=O)c1ccc(-c2cccc([N+](=O)[O-])c2)cc1`, the melting point fell in the range of 136 to 141 °C.

Compound `c1ccc(-n2nnc3ccc(Cn4ccnc4)cc32)cc1` came in with a melting point of 110 °C.

As for `O=C(Cn1cc(-c2ccc3nnn(Cc4ccc5ncccc5c4)c3n2)cn1)N1CCCC1`, the melting point is 136 to 138 °C.

As to `CCc1nc2cc([N+](=O)[O-])ccc2o1`, the melting point lay within 88 to 90 °C.

With `CC(C)c1ccc(O[C@@H](Cc2ccc(OCCNC(=O)c3ccc(-c4ccccn4)cc3)cc2)C(=O)O)cc1`, the melting point lay in the range of 100 to 101 °C.

As to `CCCc1c(OCCOc2cccc(C(=O)OCC)c2)ccc(C(C)=O)c1O`, the melting point lay in the range of 58 to 60 °C.

The compound `Cc1cccc(-c2n[nH]cc2-c2ccc(F)c(-c3ncc(C(C)(C)O)cn3)c2)n1` yielded a melting point of 162 °C.

`O=C(Cc1ccccc1Cl)Nc1ccc(C(=O)Oc2ccccc2)c(Cl)c1` gave a melting point of 160 to 163 °C.

`COC(=O)CCn1c(C)c(Cn2ccnc2)c2c(CCC(=O)O)cccc21` registered a melting point of 136 to 138 °C.

`COc1ccc(CNC(=O)c2ccc3c(c2)c(=O)n(Cc2ccccc2)c(=O)n3C)cc1` displayed a melting point of 191 °C.

The compound `O=C(Nc1nccs1)C(CC1CCCC1)c1ccc(-c2ccccc2)cc1` (stereo not given) displayed a melting point of 57 to 58 °C.

The compound `Cc1cccc(Nc2nc3c(s2)CCc2[nH]ncc2-3)n1` came in with a melting point of 280 °C.

With `CN1C(=O)C(C2=COc3ccccc3O2)=C(c2cn(C(=O)OC(C)(C)C)c3cc(OCc4ccccc4)ccc23)C1=O`, the melting point was determined as 88 °C.

`CCOC(=S)Nc1cccc(-c2ccnc3c(C(=O)c4cccs4)cnn23)c1`: the melting point is 209 to 211 °C.

In the case of `C[C@H](Nc1c(-c2c(F)cc(OCCCN(C)C)cc2F)c(Br)nc2ncnn12)C(F)(F)F`, the melting point lay within 40 to 42 °C.

For the compound `CC1(C)C(=O)NC(=O)c2c1ccc(NC(=O)c1ccccc1)c2[N+](=O)[O-]`, the melting point is over 270 °C.

`CCOC(=O)c1c[nH]nc1NCc1ccc(OC)c(OC2CCCC2)c1` registered a melting point of 102 to 104 °C.

The compound `CCC(Cl)C(=O)NCCSc1nc(C(C)(C)C)n[nH]1` (stereo not given) came in with a melting point of 68 to 70 °C.

Compound `OCCCCCCCCCCCOc1ccc(O)cc1` displayed a melting point of 99 to 100 °C.

Take `CN(C)CCCCCCOc1ccc(CC(=O)c2ccccc2)cc1`: the melting point is 53 to 54 °C.

`COc1ccc(C2(C)CNC(=O)O2)cc1OC(C)C` (stereo not given) returned a melting point of 67 to 69.5 °C.

In the case of `C=C1c2c(C)c(N3CCN(c4ccc(OC)cc4)CC3)c(C)c(C)c2OC1(C)C`, the melting point fell in the range of 134 to 136 °C.

For `Cc1nn(C)c(N)c1C(=O)Nc1ccccc1F`, the melting point fell in the range of 101 to 103 °C.

`Cc1cc(-c2cn(-c3cccc(OCCCl)c3)c3ncnc(N)c23)cc(C)c1OCc1ccccc1` gave a melting point of 188 to 190 °C.

Compound `COc1cccc2cc(C(=O)Nc3ccc(-n4nc(C(F)(F)F)cc4C(F)(F)F)cc3)oc12` yielded a melting point of 109 to 110 °C.

`CCCN1CCCC(c2cccc(O)c2)C1=O` (stereo not given) gave a melting point of 61 to 63 °C.

In turn, `Cc1nc2ccc3ccc(CNc4ccc(C(=O)O)c(F)c4)cc3c2c(=O)[nH]1` came in with a melting point of over 250 °C.

Compound `Cc1nnc(-c2ccnc(NCc3ccccn3)c2)o1` came in with a melting point of 137 to 138 °C.

`CC(=NNC(=N)N)c1sc(-c2ccc(C3CCCCC3)cc2)nc1C` registered a melting point of 273 to 276 °C.

Turning to `COC(=O)C(O)C(F)(F)F` (stereo not given), the melting point lay within 50 to 53 °C.

`Cc1nc(CC2CCc3c(C)c4ccccc4n3C2=O)c(C)[nH]1` (stereo not given): the melting point was in the range of 219 to 221 °C.

In turn, `CC(=O)c1nc(-c2ccc(C)nc2Cl)[nH]c1C` showed a melting point of 156 to 158 °C.

Compound `CC(C)(C)c1ccc2c(c1)C=C(/C=C/C=C/C=C/C(=O)O)CO2` gave a melting point of 200 to 202 °C.

Take `O=C(N[C@@H](Cc1ccccc1)C(=O)On1nnc2ccccc21)OCc1ccccc1`: the melting point was 120 to 125 °C.

On to `COc1ccc2c(c1)N(CCNC(C)=O)CC(c1ccccc1)O2` (stereo not given), for which the melting point fell in the range of 153 to 154 °C.

Turning to `Brc1ccc(Nc2ncc(-c3ccccc3)s2)nc1`, the melting point was over 220 °C.

Turning to `O=S(=O)(NCC(O)(Cn1cncn1)c1ccc(F)cc1F)c1ccc(F)cc1` (stereo not given), the melting point fell in the range of 140 to 146 °C.

The compound `C=CCOC(=O)c1cccc2c1N=C(c1ccccc1Cl)CC2=O` returned a melting point of 121 °C.

The compound `CCCC(=O)c1nc(CCC)[nH]c1C#N` had a melting point of 94 to 95 °C.

As to `COc1ccc(C=C(C)c2cc(OC)sc2C)cc1`, the melting point was 112 to 113 °C.

`Cc1c(S(=O)(=O)N(C)C)c(=O)c2ccc(F)cc2n1C` had a melting point of 244 to 248 °C.

As to `CC(C)CCCC(C)C1CCC2C3CCC4CC(=O)CC(C)C4(C)C3CCC12C` (stereo not given), the melting point was in the range of 132 to 133 °C.

In turn, `Nc1sc(-c2ccco2)c(CN(C2CCCCC2)C2CCCCC2)c1C(=O)c1ccc(Cl)cc1` had a melting point of 158 to 160 °C.

For the compound `COc1cc2c(cc1O)C(=O)CCC2`, the melting point fell in the range of 147 to 148 °C.

On to `CC(=O)NCC1(N2CCCCC2)CCCCC1`, for which the melting point is 104 °C.

Broadly, the melting point is the temperature of the solid-liquid transition.

For the origin of these results see a melting point compilation (Tetko et al.; mined from patent text by program, amines drawn as free bases though some values may be those of a salt).
